A value given as a limit tells only on which side of the number the result lay.

Turning to `O=C1C(=O)c2ccccc2C2=C1SCC1(CCN(Cc3ccccc3)CC1)O2`, the melting point lay within 170 to 172 °C.
On to `COC(=O)COc1cccc(-c2nc(COc3ccc(COc4nn(-c5ccccc5)cc4C=O)cc3OC)c(C)o2)c1`, for which the melting point lay within 107 to 109 °C.
In turn, `CCOC(=O)CN1C(=O)N(c2ccc(C)cc2)C2(CCCCC2)C1=O` showed a melting point of 132 °C.
On to `Cn1nc(-c2c(F)cc(Cl)c(=S)n2Cc2ccccc2)c(Cl)c1OC(F)F`, for which the melting point lay in the range of 135 to 138 °C.
As for `CC(C)c1nn(-c2ccccc2)c(-c2ccc(F)cc2)c1CCC=O`, the melting point fell in the range of 86 to 88 °C.
`C=CCOC(=O)COc1ccc(CO)cc1`: the melting point was in the range of 33.5 to 34.5 °C.
In turn, `COCCNC(=O)c1cccc(NC(=O)Oc2ccccc2)c1` displayed a melting point of 142 to 150 °C.
The result for `CC(C)N1CC2(COc3ccc(N(C)C)cc3OC2)OC1=O` (stereo not drawn) reads 135 to 138 °C; that for `CS(=O)(=O)c1ccc(Oc2ccc3[nH]c(C4=NCC(CC(=O)N5CCOCC5)S4)cc3c2)cn1` (stereo not drawn), 168 to 169 °C.
In the case of `NS(=O)(=O)c1ccc(-c2[nH]c3ccccc3c2-c2ccc(Br)cc2)cc1`, the melting point is 277 to 279 °C.
The result for `O=C(c1ccc(Cl)cc1)P1(=O)Oc2ccccc2-c2ccccc21` (stereo not drawn) reads 125 to 131 °C; that for `CC(C)(C)NCCOp1oc2c(C(C)(C)C)cc(C(C)(C)C)cc2c2cc(C(C)(C)C)cc(C(C)(C)C)c2o1`, 135 to 138 °C.
Compound `COCc1cccc(-c2ccc3nc(-c4ccc(Cl)cc4)c(Cl)n3c2)c1` returned a melting point of 120 to 122 °C.
Turning to `COP(=O)(CC(=O)C(C)(C)Cc1ccccc1)OC`, the melting point lay in the range of 39 to 46 °C.
Compound `N#CC(NC(=O)c1cccn2ccnc12)c1ccco1` (stereo not drawn) came in with a melting point of 149 to 151 °C.
The compound `Cc1c(F)cccc1C(=O)Nc1ccc(C(=O)N2Cc3ccccc3Cc3ccccc32)cc1Cl` had a melting point of 254 to 256 °C.
`Cc1sc(C)c2c(=O)n3cc(C#N)ccc3nc12` displayed a melting point of 242 to 244 °C.
With `CCOC(=O)c1cc(=O)c2c(OCC(O)COc3ccc(CC)cc3)cccc2o1` (stereo not drawn), the melting point fell in the range of 80 to 85 °C.
As to `COc1cccc(C2COc3c(C)c(C)c(NC(=O)CC(C)(C)C)c(C)c32)c1` (stereo not drawn), the melting point is 169 to 170 °C.
As to `CCCCN(C1c2cc(OCc3ccccc3)ccc2OC(C)(C)C1O)S(C)(=O)=O` (stereo not drawn), the melting point lay in the range of 159 to 160 °C.
Compound `Cc1cccc(-c2n[nH]cc2-c2ccc(F)c(-c3ccc(C(C)O)cn3)c2)n1` (stereo not drawn) had a melting point of 149 to 151 °C.
The compound `O=C(Oc1c(F)c(F)c(F)c(F)c1F)c1ccccc1O` came in with a melting point of 111 to 112 °C.
For `CCNC(=O)c1ccc(-n2nnc(C(=O)NC3CC3)c2COCc2ccccc2)c(OCc2ccccc2)c1`, the melting point came to 132 °C.
In turn, `CCCn1c(COC)nc2c(N)nc3ccc(OCCCN4CCOCC4)cc3c21` yielded a melting point of 193 to 196 °C.
The result for `NS(=O)(=O)c1ccc(-c2cc(-c3nc(-c4ccc(C(F)(F)F)cc4)cc(C(F)F)n3)ccn2)s1` reads 242 °C.
Consider `O[C@H]1CC[C@@H](CCN2CCC(=C3c4ccc(F)cc4Sc4ccc(C(F)(F)F)cc43)CC2)CC1`, for which the melting point lay within 147 to 150 °C.
The compound `CCc1nc2c(C)cc(C)nc2n1Cc1ccc(C(c2ccccc2)C(CO)c2nnn[nH]2)cc1` (stereo not drawn) showed a melting point of 128 to 132 °C.
With `Cc1nn(-c2ccc(Cl)cc2Cl)c(=O)n(C)c1=O`, the melting point lay within 109 to 110 °C.
`COC(=O)N=C(N(C)C)N(C)C(=O)NC1CCCCC1` registered a melting point of 60 °C.
The value for `COC(=O)c1c(OC)cc2oc(C)cc(=O)c2c1OC` was 188 °C.
In turn, `CC(C)NCC(O)COc1ccc(NC(=O)C(C)C)cc1C#N` (stereo not drawn) gave a melting point of 126 to 127 °C.
Consider `CCCCN(Cc1ccc(Cl)cc1)c1cncnc1`, for which the melting point lay in the range of 67 to 68 °C.
`CN(C)C=CC(=O)C1CC1` registered a melting point of 55 °C.
Turning to `O=C1CCC(N2C(=O)c3ccccc3C2=O)C(=O)N1CO` (stereo not drawn), the melting point amounted to 165 °C.
`CC(=O)Nc1nc2ccc(S(=O)(=O)n3c(CCC(=O)O)cc4cc(C(F)(F)F)ccc43)cc2s1` displayed a melting point of 290 to 292 °C.
On to `CCCOc1ccccc1-c1nccc(=O)[nH]1`, for which the melting point is 112 to 113 °C.
With `CCOC(=O)c1cc(-c2csc(-c3ccnc(N(C)C)c3)n2)c(=O)[nH]c1C(C)C`, the melting point was greater than 230 °C.
`COc1ccc(C2=NCc3nncn3-c3ccc(Cl)cc32)cc1` gave a melting point of 216 to 217 °C.
The compound `O=C(O)CCC/C=C\C[C@@H]1[C@H]2CC[C@H](C2)[C@H]1NC(=O)c1csc2ccc(O)cc12` returned a melting point of 141 to 142 °C.
In the case of `O=C1CCc2c(Cl)sc(-c3ccncc3)c21`, the melting point was 163 to 165 °C.
Take `CCCc1ccc(C(=O)Nc2ccc3sc(C)nc3c2Cl)cc1`: the melting point is 184 °C.
`CCCCCCC(c1ccc2[nH]c(-c3ccc(F)cc3)nc2c1)n1ccnc1` (stereo not drawn) showed a melting point of 122 °C.
Turning to `O=C(O)CCC(=O)Oc1ccc(N(CCCl)CCCl)cc1`, the melting point was in the range of 98 to 100 °C.
The compound `CC12CC(=O)C3C(CCC4CC(O)CCC43C)C1CCC2C(=O)OCC#N` (stereo not drawn) displayed a melting point of 142 to 146 °C.
As to `Cn1ncc(C(=O)O)c1C(=O)Nc1ccn2nc(Br)nc2c1`, the melting point is greater than 250 °C.
The result for `CCOC(=O)C(=O)Nc1ccc(Cc2ccc(NC(=O)C(=O)OCC)cc2)cc1` reads 146 to 147 °C; that for `CC(C)Oc1nccc(-c2c(-c3ccc(F)cc3)ncn2C2CCC(O)CC2)n1` (stereo not drawn), 208 to 211 °C.
The value for `CN(C)c1ccc(C(=O)NN=C2C(=O)Nc3ccc(I)cc32)cc1` was 324 °C.
`ON=Cc1cc(Br)ccc1Cl` registered a melting point of 126 to 128 °C.
In turn, `N#CCC1COc2ccccc2C1` (stereo not drawn) registered a melting point of 54 to 55.5 °C.
The compound `CC1=CCC(=Nc2cc([N+](=O)[O-])ccc2O)S1` gave a melting point of 202 to 204 °C.
In turn, `CC(C)n1nc(-c2cc(-c3ccn[nH]3)cnc2-c2ccccc2)ccc1=O` displayed a melting point of 212 to 213 °C.
`CC(C)CC(C)Oc1c(-c2ccc(S(C)(=O)=O)cc2)cnn(-c2ccc(F)c(F)c2)c1=O` (stereo not drawn): the melting point lay within 132 to 133 °C.
The compound `CCC(CC)N1CCC(CNc2ccc(Cl)cc2C(=O)Nc2ccc(C)cn2)CC1` showed a melting point of 122 to 124 °C.
Take `O=C(NCCCc1ccc(CO)cc1)c1ccc(-c2ccccn2)cc1`: the melting point is 118 to 120 °C.
`CN1CCN(c2cccc3c2CC[C@@H](N)C3)CC1` had a melting point of 98 to 99 °C.
Take `CCSc1c(O[C@H]2CC[C@H](N)CC2)ccc2[nH]ncc12`: the melting point lay within 157 to 158 °C.
Compound `CN(C)CCNc1cc(CNc2ccccc2C(=O)Nc2cccc(C(F)(F)F)c2)ccn1` returned a melting point of 100 °C.
In turn, `O=S(=O)(c1ccc(Nc2nccc(Nc3ccc(F)cc3)n2)cc1)N(CCN1CCCC1)C1CCC2(CC1)OCCO2` had a melting point of 155 °C.
Turning to `CC(C)c1nn(-c2ccc(C(F)(F)F)cn2)cc1CCCOc1cc(CCC(=O)O)n(C2CCCCC2)n1`, the melting point was in the range of 166 to 167 °C.
The compound `CCc1nc2c(cnn2CC)c(NC2CCOCC2)c1CNC(=O)c1cccc(C(=O)NCc2ccc(OC)c(Br)c2)c1` registered a melting point of 130 to 132 °C.
`CCc1cn(C2CC(I)C(CO)O2)c(=O)[nH]c1=O` (stereo not drawn) registered a melting point of 162 to 164 °C.
`Cn1ccnc1Sc1ccc(Nc2c(C#N)cnc3cc(-c4ccc(CN5CCOCC5)nc4)ccc23)cc1Cl` returned a melting point of 233 to 235 °C.
`CC(=O)Oc1c2cc(C(F)(F)F)c(C(F)(F)F)cc2c(OC(C)=O)c2cc3ccccc3cc12` returned a melting point of 149 to 153 °C.
With `Cn1nnnc1-c1ccc2c(c1)S(=O)(=O)c1ccccc1C2=O`, the melting point is 270 to 271 °C.
Turning to `CC(C)(C)c1cc(C=Cc2n[nH]c(=O)[nH]2)cc(C(C)(C)C)c1O`, the melting point lay in the range of 280 to 284 °C.
The value for `NC(=O)c1c(Cl)cc(Cl)c(OCCCC(=O)O)c1Cl` was 165 to 166 °C; that for `CNC(=S)C1(c2cnc3ccccc3c2)CCCS1` (stereo not drawn) was 159 °C.
For `COc1ccc(COCCC(C)=O)cc1`, the melting point is 48 to 49 °C.
On to `CCOC(=O)NCCc1cc2ccccc2s1`, for which the melting point lay within 65 to 66 °C.
In the case of `COc1cccc(OC2COc3ccc(OCc4ccccc4)cc3C2=O)c1` (stereo not drawn), the melting point is 98 to 100 °C.
Consider `O=C(CN1CCN(C(=O)OCc2ccccc2)CC1)Nc1ccccn1`, for which the melting point lay within 78 to 80 °C.
For `O=C(O)CCCCCCCC(=O)c1c(-c2ccc(O)cc2)sc2cc(O)ccc12`, the melting point is 154 to 158 °C.
The result for `CC(Cn1ccnc1)Cn1cnc2ccc(Br)cc2c1=O` (stereo not drawn) reads 159 to 162 °C.
Compound `NCCSC(c1ccccc1)(c1ccccc1)c1ccccc1` showed a melting point of 142 to 143 °C.
The compound `Cc1cc(=O)n(C)c2cc(OCCCN3CCC(NC(=O)c4ccccc4)CC3)ccc12` had a melting point of 193 to 195 °C.
Consider `CC(C)(C)OC(=O)NN=C(c1ccccc1)c1ccncc1`, for which the melting point was 134 °C.
Turning to `Cc1cccc2c1nc(COc1ccc(Cl)cc1)n2CCC(C)C(=O)O` (stereo not drawn), the melting point was in the range of 149 to 151 °C.
Take `Cc1ccc(N2C(=O)C(O)=C(C(=O)c3ccc(C(C)C)cc3)C2c2ccc(N3CCN(C)CC3)cc2)nn1` (stereo not drawn): the melting point lay within 198 to 203 °C.
The result for `Cc1c(C)c(N2CCN(c3ccc(F)cc3)CC2)c(C)c2c1OC(C)(C)C2` reads 175 to 177 °C; that for `Cc1cccc(CC(Nc2ccccc2)C(=O)NC(C#N)COCc2cccc(C(=O)O)c2)c1` (stereo not drawn), 135 to 137 °C.
The result for `O=C(O)c1ccc(S(=O)(=O)CCCl)cc1` reads 142 to 144 °C; that for `CCCCOC(=O)n1c(N)nc(C#N)c1C#N`, 170 to 172 °C.
Take `COc1ccc2c(CNCCCCCCCCCCC(=O)O)cc3cc4c(cc3c2c1)OCO4`: the melting point lay within 146 to 148 °C.
The compound `COc1cc(N)nc(Cl)n1` registered a melting point of 186 °C.
In turn, `O=[N+]([O-])c1oc2ccccc2c1Br` registered a melting point of 130 to 132 °C.
The result for `Cc1cccc(CCC(O)(P(=O)(O)O)P(=O)(O)O)c1N` reads 133 °C; that for `CC(C)NCC(=O)Nc1cccc2c1C(=O)c1c(NC(=O)CNC(C)C)cccc1C2=O`, 196 to 197 °C.

The values are drawn from a melting point compilation (Tetko et al.; mined from patent text by program, amines drawn as free bases though some values may be those of a salt).
